Data reported in patent US9907762B2, “Stabilized mutant opsin proteins” (University of Washington, priority 2003, dated 2018).
Entries after “also recorded” stand apart in the source; their conditions may differ.

Tests used:
wild-type opsin [1] = target: T1, wild-type opsin (Bos taurus, UniProt P02699); experiment: Photosensitivity studies; assay type: biochemical
T1 construct: expressed in transfected cells

wild-type opsin [2] = target: T1, wild-type opsin; experiment: Immunocytochemistry, localization in HEK293 cells; assay type: cell-based; details: immunofluorescence
Method: HEK293 cells expressing wild-type rhodopsin or P23H-opsin under a tetracycline-inducible promoter were cultured in Dulbecco's modified Eagle's medium (Invitrogen). The cells were attached to glass bottom microwell dishes (MatTek Corp.) with Cell-Tak (Becton Dickinson Labware). Expression of opsin or P23H-opsin was induced by the addition of 1 μg/ml tetracycline as recommended by the manufacturer's protocol (Invitrogen). The cells were treated with 50 μM 11-cis-7-ring retinal 2 hours after induction. The cells were harvested after 24 hours and fixed with 4% paraformaldehyde (Fisher) in PBS (136 mM NaCl, 11.4 mM sodium phosphate, pH 7.4) for 10 minutes and washed by PBS. To block nonspecific labeling, the cells were incubated in 1.5% normal goat serum (Vector Lab., Inc.) in PBST (136 mM NaCl, 11.4 mM sodium phosphate, 0.1% Triton X-100, pH 7.4) for 15 minutes at room temperature. The cells were incubated overnight at 4° C. in purified 1D4 antibody diluted with PBST. The sections were rinsed in PBST and incubated with indocarbocyanine (Cy3)-conjugated goat anti-mouse IgG (Jackson ImmunoResearch Lab., Inc.) and Hoechst 33342 dye (Molecular Probes). […] For confocal imaging, the cells were analyzed on a Zeiss LSM510 laser scanning microscope (Carl Zeiss, Inc.).

wild-type opsin [3] = target: T1, wild-type opsin; experiment: Thermostability of pigments; assay type: biochemical; details: incubation at either 4° C. or 37° C.
P23H-opsin [4] = target: T2, P23H-opsin (Bos taurus, UniProt P02699, P23H); experiment: Pigment regeneration, retinals added to harvested cells/cell membranes; assay type: biochemical; details: retinal added after the cells were harvested
T2 construct: expressed in transfected cells
Description: (§1) For the construction and selection of tetracycline-inducible opsin cell lines, an Invitrogen T-REx™ system was used. Briefly, nucleic acids encoding wild-type opsin and the P23H mutant were excised as EcoRI-NotI fragments from pMT4 and then cloned into the EcoRI-NotI site within the polylinker of pcDNA4. Using opsin-specific forward and reverse primers, the entire gene was sequenced for verification. These plasmids were then separately transfected by calcium-phosphate precipitation into T-REx™-293 cells that already stably expressed the tetracycline repressor; these cells were routinely grown under blasticidin selection. After transfection, zeocin was added to the culture medium, and surviving colonies of cells were isolated and subsequently expanded into larger 6-well plates. Each of these clones was exposed to tetracycline, and 48 hours after induction, the cells were harvested and solubilized with 1% DM. Separately, uninduced cells were also solubilized. The samples were run on SDS-PAGE and immunoblotted with the monoclonal antibody 1D4. Cell lines were chosen on the basis of production of the least amount of opsin (i.e., nondetectable opsin levels on immunoblots) in the absence of tetracycline and moderate amounts of opsin in the presence of the drug. HEK293 cells were grown in Dulbecco's modified Eagle's medium containing high glucose (Invitrogen) at 37° C. in the presence of 5.0% CO2. In all of the studies, the cells were harvested after 48 hours of induction with tetracycline (1 μg/ml).
(§2) The cells were washed three times with PBS, harvested, and incubated with different analogs of 11-cis-retinal (50 μM) for 45 minutes at 4° C. The cells were then lysed with 1.0% n-dodecyl-maltoside (DM) (Anatrace) in the presence of protease inhibitors (complete protease inhibitor mixture tablets; Roche Molecular Biochemicals) and centrifuged at 36,000 rpm in a Beckman ultracentrifuge for 30 minutes at 4° C. The supernatant was incubated with 1D4-coupled CNBr-activated Sepharose 4B (Pharmacia Corp.) beads overnight. The beads were then washed three times with PBS containing 0.1% DM. Bound pigments were eluted off the beads using 0.1 mM synthetic peptide (last 9 amino acid residues of the C terminus of rhodopsin) in 0.1% DM. In studies when retinoids (50 μM) were added during biosynthesis, a Me2SO solution of retinoids (10 μl of 100 mM) was added directly to the cell culture medium after 2 and 24 hours of induction. The cells were harvested at 48 hours and lysed with 1.0% DM. Pigment was purified by immunoaffinity chromatography. The UV-visible spectra of the eluted pigment samples were then recorded on a Perkin Elmer Lambda 800 UV-visible spectrophotometer in the range of 250-650 nm.

wild-type opsin [5] = target: T1, wild-type opsin; experiment: as above; assay type: biochemical; details: retinal 50 μM added to harvested cells, 45 minutes at 4° C.
Description: as §1, §2

wild-type opsin [6] = target: T1, wild-type opsin; experiment: Pigment formation, retinals added to cell culture medium during opsin biosynthesis; assay type: cell-based; details: for pigment formation with wild-type opsin: retinal 50 μM added during biosynthesis; for absorbance max of the pigment formed with wild-type opsin: retinal added during biosynthesis, immunoaffinity purified
Description: as §1, §2

P23H-opsin [7] = target: T2, P23H-opsin; experiment: as above; assay type: cell-based; details: for pigment formation / rescue of folding of P23H-opsin: retinal 50 μM added during biosynthesis; for absorbance max of the pigment formed with P23H-opsin: retinal added during biosynthesis, immunoaffinity purified
P23H-opsin [8] = target: T2, P23H-opsin; experiment: Glycosylation status by immunoblotting; assay type: cell-based; details: retinal added during biosynthesis, immunoblot
Method: The samples were loaded on 10% SDS-polyacrylamide gels and transferred to Immobilon-NC membrane (Millipore) according to established protocols. The membranes were blocked with blocking buffer (Licor) for 1 hour and incubated at room temperature with 1D4 antibody (1:1000) for 1 hour. […] The membranes were then washed with PBS containing Tween 20 and scanned using an Odyssey Infrared imager (Licor).
The samples were incubated at 37° C. for 16 hours and then loaded onto a 10% polyacrylamide gel. The immunoblots were developed as described above.

P23H-opsin [9] = target: T2, P23H-opsin; experiment: Immunocytochemistry, localization in HEK293 cells; assay type: cell-based; details: immunofluorescence
Method: HEK293 cells expressing wild-type rhodopsin or P23H-opsin under a tetracycline-inducible promoter were cultured in Dulbecco's modified Eagle's medium (Invitrogen). The cells were attached to glass bottom microwell dishes (MatTek Corp.) with Cell-Tak (Becton Dickinson Labware). Expression of opsin or P23H-opsin was induced by the addition of 1 μg/ml tetracycline as recommended by the manufacturer's protocol (Invitrogen). […] The cells were harvested after 24 hours and fixed with 4% paraformaldehyde (Fisher) in PBS (136 mM NaCl, 11.4 mM sodium phosphate, pH 7.4) for 10 minutes and washed by PBS. To block nonspecific labeling, the cells were incubated in 1.5% normal goat serum (Vector Lab., Inc.) in PBST (136 mM NaCl, 11.4 mM sodium phosphate, 0.1% Triton X-100, pH 7.4) for 15 minutes at room temperature. The cells were incubated overnight at 4° C. in purified 1D4 antibody diluted with PBST. The sections were rinsed in PBST and incubated with indocarbocyanine (Cy3)-conjugated goat anti-mouse IgG (Jackson ImmunoResearch Lab., Inc.) and Hoechst 33342 dye (Molecular Probes). The cells were rinsed in PBST and mounted in 50 μl of 2% 1,4-diazabicyclo-[2.2.2]octane (Sigma) in 90% glycerol to retard photobleaching. For confocal imaging, the cells were analyzed on a Zeiss LSM510 laser scanning microscope (Carl Zeiss, Inc.).

P23H-opsin [10] = target: T2, P23H-opsin; experiment: Retinoid analysis of the bound chromophore (HPLC, spectrophotometry); assay type: binding
Method: (§3) The mixture was kept at room temperature for 30 min, and then 400 μl of MeOH and 400 μl of hexane were added. The mixture was shaken on a vortex for 5 minutes and centrifuged at 14,000 rpm to separate layers. The hexane layer was collected. Another 400 μl of hexane was added to the aqueous layer, and extraction was repeated. Combined hexane layers were dried down and redissolved in 120 μl of hexane, and 100 μl fractions were analyzed by normal phase HPLC as previously described.

wild-type opsin [11] = target: T1, wild-type opsin; experiment: as above; assay type: binding
Method: as §3

[12] = cell membranes, after photobleaching
[13] = mixture of the four 7-ring retinal isomers added during biosynthesis

| Compound | pigment formation with P23H-opsin in cell membranes (P23H-opsin [4]) | regeneration of wild-type rhodopsin in cell membranes (wild-type opsin [5]) | pigment formation with wild-type opsin (wild-type opsin [6]) | absorbance max of the pigment formed with wild-type opsin (wild-type opsin [6]) | pigment formation / rescue of folding of P23H-opsin (P23H-opsin [7]) | absorbance max of the pigment formed with P23H-opsin (P23H-opsin [7]) | glycosylation of P23H-opsin (P23H-opsin [8]) | other results |
| --- | --- | --- | --- | --- | --- | --- | --- | --- |
| 7-rhodopsin: rhodopsin (wild-type opsin) regenerated with 11-cis-7-ring retinal | – | – | – | – | – | – | – | stability to light in cell membranes (wild-type opsin [1]; HEK293 cell membranes, 20 minutes light): not bleached by light; stability to light, purified in detergent (wild-type opsin [1]; purified pigment in detergent): stable to light; cellular localization of wild-type opsin pigment (wild-type opsin [2]): found predominantly at the plasma membrane; temperature stability of purified pigment (wild-type opsin [3]): no change in the amount of chromophore |
| CC1=C(/C=C/C(C)=C/C=C/C(C)=C/C=O)C(C)(C)CCC1 [11-cis-retinal] | only a small amount of pigment was formed | regeneration | regeneration | 499 nm | induce the in vivo folding and stabilization of P23H-opsin | 492 nm | acquired a mature state of glycosylation | – |
| 11-cis-9-demethyl-7-ring retinal | – | – | – | – | ineffective in pigment formation | – | – | pigment formation / rescue of folding of P23H-opsin (P23H-opsin [7]; listed as 11-cis-9-demethyl-ring retinal): lack of activity |
| CC1=C(/C=C/C(C)=C\C=C\C(C)=C\C=O)C(C)(C)CCC1 [9-cis-retinal] | – | – | – | – | – | – | – | cellular localization of P23H-opsin (P23H-opsin [9]): promoted transport of P23H-opsin to the cell surface |
| 11-cis-7-ring retinal | only a small amount of pigment was formed | regeneration | recombined with wild-type opsin | approximately 500±3 nm | significant amounts of pigment | approximately 490±3 nm | Golgi-associated glycosylation pattern similar to the wild-type protein | fraction of P23H-opsin folded to form pigment (rescued) (P23H-opsin [7]; selective elution of folded form, 10 mM phosphate, pH 6.0, spectra and immunoblots): approximately 80%; substitution of bound chromophore by added 11-cis-retinal (P23H-opsin [10]; [12]): did not lead to its substitution; isomer bound by P23H-opsin (P23H-opsin [10]; [13]): selectively bound; substitution of bound chromophore by added 11-cis-retinal (wild-type opsin [11]; [12]): did not lead to its substitution; isomer bound by wild-type opsin (wild-type opsin [11]; [13]): selectively bound |
| 11-cis-6-ring retinal | only a small amount of pigment was formed | regeneration | recombined with wild-type opsin | – | No significant pigment; also recorded: lack of activity | – | – | – |
